Values of other authors as cited in patent publication US8067364B2, “Deer antler extract for promoting angiogenesis” (Velvet Antler Research New Zealand Limited (VARNZ), priority 2003, dated 2011).
No end group written: not given here.

What was measured:
[1] = system: endothelial cells, wounds; details: literature
[2] = system: wounds; details: delivered by gene therapy, local sustained delivery; literature

Thymosin α1: peptide of the Thymosin family, potential wound healing agent (Ac-SDAAVDTSSEITTKDLKEKKEVVEEAEN; ends and bridges not checked; UniProt P06454 2-29, looked up)
endothelial cell migration, angiogenesis, and wound healing [1]: stimulates endothelial cell migration, angiogenesis, and wound healing

VEGF
angiogenesis and wound healing [2]: cause angiogenesis and enhanced wound healing
